Assay results published in patent US5661177A, “Zinc cysteate its preparation and uses in pharmacy and cosmetology” (Chimie et Biologie, priority 1988, dated 1997).
Entries after “also recorded” stand apart in the source; their conditions may differ. Read-outs that look alike come from different tables or passages of the source.

How the values were obtained:
[1] = system: cicatrization of wounds; details: normal animal, without zinc deficiency; Favier et al. 1980; cited from earlier work
[2] = system: skin of Guinea Pig; details: TABLE I, cited from earlier work
[3] = system: lipidic synthesis of the sebaceous gland; assay: In vitro antiseborrheic properties (14C-acetate incorporation, prepucial gland of the rat); assay type: cell-based
Experimental: In vitro antiseborrheic properties of CB 619
According to the experiment, the lipidic metabolic activity of the prepucial gland of the rat was evaluated. The lipidic synthesis of the sebaceous gland was evaluated by adding, as marked precursor, sodium ^14 C-acetate.
CB 619 was tested in comparison with carboxymethylcysteine (CMC) as a reference.

[4] = system: skin; details: rabbit, in vivo
Text: Skin irritation index of CB 619 in the Rabbit
The experiment was made according to the French "Arrete Ministeriel" of the 21th of February 1982 which specifies the official method for the determination Of the skin primary irritation index (SPI).
The official method for the determination of the index of primary cutaneous irritation is described in detail in Annex 1.
The present method is utilized so as to determine the index of primary cutaneous irritation for a cosmetic or bodily hygiene product.
This method is based on the observation of cutaneous reactions provoked through the sole application of the principle.
4.1. Male albino rabbits of defined breed, weighing around 2.5 kg. So as to be perfectly acclimated, the animals must be kept in individual cages for one week prior to the experiment, and; must receive food of invariably balanced composition.
5.1.1. The day before application of the product, shear the back and flanks of the rabbits (4.1) with shears (4.3) so as to clear a surface of about 14 cm×14 cm; proceed with care in order to avoid all irritation. Verify skin condition so as to retain but six animals presenting healthy and clean-shaved skin.
5.1.2. […]
Primary cutaneous irritation must be evaluated around thirty minutes subsequent to removal of the dressing; a second evaluation is to take place 48 hours later, i.e. 72 hours after application of the product. […]

[5] = system: Mouse; assay: Acute toxicity in the Mouse (LD 50); assay type: in vivo; details: for LD 50: male and female mice, 14 days, Miller and Tainter method
Experimental: Acute toxicity of CB 619 in the Mouse
The lethal dosis 50% (LD 50) of CB 619 were evaluated when dissolved in bidistilled water and administered by 0.2 to 0.3 ml/kg volumes, monitoring the effect during 14 days.

[6] = system: skin of Guinea Pig; details: in vivo
Text: The experiment was made according to the technical sheet No. 44 (J. Pharmacol. Paris, 1978, 9, 1, 103-6) which conforms to the Magnusson and Kligmann technique.
This sensibilization test according to Magnusson and Kligmann is described in detail in annex 3.
This test is designed to create a delayed allergic reaction in the guinea pig.
Female albino Hartley-breed guinea pigs weighing between 300 and 500 grams.
For the intradermic tract, the product is placed in solution or suspension in bidistilled water, or a suitable solvent. Intradermic injections of 0.1 ml are given in the preliminarily sheared and shaved dorsal region of four albino guinea pigs in increased concentrations. […] The reading of possible reactions takes place after 24 hours. […] If this is not the case, the scale utilized will depend on the maximum non-irritating concentration (MNIC), whose determination may require a second series of tests with concentrations to be determined in accordance with the results of the first.
The same procedures are used for the external cutaneous tract, with the product being placed, in certain cases, in suspension or solution in vaseline. […] Readings are taken one hour following removal of the pads. […]
Readings of local reactions take place 24 and 48 hours following removal of the pad. […]

[7] = system: human fibroblast cells
[8] = system: eye; details: rabbit, in vivo
Text: The experiment was made according to the recommendations of the French "Arrete Ministeriel" of the 21 February 1984 which specifies the official method to determinate the eye irritation (E.I.).
The present method is utilized so as to evaluate the kind and degree of irritation brought about in the eyes by the use of a cosmetic or bodily hygiene product.
The method is based on observation of ocular reaction provoked by the sole instillation of the product.
Directly apply the product in the conjunctival pouch of one of the eyes in the following doses:
Observe the eye of the rabbits one hour, and then 1, 2, 3, 4 and 7 days following the instillation, utilizing the non-instilled eye as a control in order to evaluate possible irritation in the treated eye.
Add up the scores gathered for each of the six rabbits as of each time of observation. One thereby obtains the index of individual ocular irritation: I.O.I.
At each time of observation calculate the average individual ocular irriatation for the six rabbits. One thereby obtains the index of mean ocular irritation: O.I.
Note among the six ocular irritation scores the one with the highest value. One thereby obtains the index of maximum ocular irritation: M.O.I. The time it takes for the latter to appear will be specified in the minutes or report of the experiment.
In an initial approximation, the product is classified in one of the six categories in accordance with the maximum ocular irritation scores.
In a second evaluation, the persistence of lesions intervenes as a corrective of the preceding classification; the ocular irritation and individual ocular irritation scores at different times are taken into account:

[9] = system: Pityrosporum ovale 1363; assay: Antifungic test, discs method (inhibition diameter); assay type: cell-based; details: 72 hours at 37° C.
Experimental: (§1) CB 619 was tested against Pityrosporum orbiculare 1219 and Pityrosporum ovale 1363, both from the Pasteur Institute, in the Dixon's culture medium, modified by Randjandiche according to the following composition:
(§2) 30 ml of culture medium were cast in each Petri dish of 90 mm of diameter.
(§3) The inoculum was a 2 ml suspension of Pityrosporum containing 10,000,000 germs, 72 hours old, per ml.
(§4) After drying at 37° C., tests were carried out according to discs method or to cylinders method.
(§5) According to the discs method, discs of 6 mm of Antibiotica-Testblattchen Schleider & Schull, reference 2668/2, are soaked in test solution, then set down onto the seeded medium.
(§6) According to both methods, the inhibition areas were measured after a time of incubation of 72 hours at 37° C.
(§7) According to the discs method, Intrinsic Inhibition Power of CB 619 is, the inhibition diameter being given in mm: […]

[10] = system: Pityrosporum orbiculare 1219; assay: as above; assay type: cell-based; details: 72 hours at 37° C.
Experimental: as §1, §2, §3, §4, §5, §6, §7

[11] = pH of aqueous solution; assay type: physicochemical; details: 6% solution in water
[12] = system: Pityrosporum ovale 1363; assay: Antifungic test, cylinders method (inhibition diameter); assay type: cell-based; details: 72 hours at 37° C.
Experimental: (§8) CB 619 was tested against Pityrosporum orbiculare 1219 and Pityrosporum ovale 1363, both from the Pasteur Institute, in the Dixon's culture medium, modified by Randjandiche according to the following composition: 30 ml of culture medium were cast in each Petri dish of 90 mm of diameter. The inoculum was a 2 ml suspension of Pityrosporum containing 10,000,000 germs, 72 hours old, per ml. After drying at 37° C., tests were carried out according to discs method or to cylinders method. According to cylinders method, cylinders of 4 mm of diameter were excavated in gelose with a stainless steel tool, and 75 microliters of the solution of the tested product were introduced into each cylinder. According to both methods, the inhibition areas were measured after a time of incubation of 72 hours at 37° C. According to cylinders method, Intrinsic Inhibition Power of CB 619 is, the inhibition diameter being given in mm: […]

[13] = system: Pityrosporum orbiculare 1219; assay: as above; assay type: cell-based; details: 72 hours at 37° C.
Experimental: as §8

[14] = system: wound made by loss of substance; assay: Cicatrizing activity in the rat (area of wound); assay type: in vivo
Text: Cicatrizing activity of CB 619 in the rat
The experiment was to calculate the area of the wound made by loss of substance.

For `[Zn]` [zinc], the Cicatrization [1] is given as “does not accelerate the cicatrization”.

In the case of `Nc1ccc(N)cc1` [Diamine paraphenylene], the “Class. (degree of allergenicity)” value ([2]; reading 24) is given as “V (81-100)”, the “Number of animals with Note 0” value ([2]; reading 24) is given as 3 and the “Number of animals with Note 1” value ([2]; reading 24) is given as 13. For the same compound, the “Number of animals with Note 2” value ([2]; reading 24) was 4, the “Number of animals with Note 3” value ([2]; reading 24) was 0 and the “Percentage of animals having presented a reaction” value (shortened to “Percentage”) ([2]; reading 24) was 85%. For the same compound, the “Class. (degree of allergenicity)” value ([2]; reading 48) was “IV (65-80)”, the “Number of animals with Note 0” value ([2]; reading 48) was 4 and the “Number of animals with Note 1” value ([2]; reading 48) was 12. The “Number of animals with Note 2” value ([2]; reading 48) was 4, the “Number of animals with Note 3” value ([2]; reading 48) was 0 and the “Percentage” value ([2]; reading 48) was 80%.

In the case of `CCN(CC)CCNC(=O)c1ccc(N)cc1` [Procainamide], the “Number of animals with Note 0” value ([2]; reading 24) is listed as 6, the “Number of animals with Note 1” value ([2]; reading 24) is listed as 5 and the “Number of animals with Note 2” value ([2]; reading 24) is listed as 9. The “Number of animals with Note 3” value ([2]; reading 24) was 0, the “Percentage” value ([2]; reading 24) was 70% and the “Number of animals with Note 0” value ([2]; reading 48) was 6. The “Number of animals with Note 1” value ([2]; reading 48) was 5, the “Number of animals with Note 2” value ([2]; reading 48) was 9 and the “Number of animals with Note 3” value ([2]; reading 48) was 0. For the same compound, the “Percentage” value ([2]; reading 48) was 70%.

In the case of carboxymethylcysteine [CMC], the “Inhibition of the lipidic synthesis” value ([3]; 10^-3 M) is reported as 24.5% and the “Inhibition of the lipidic synthesis” value ([3]; 10^-4 M) is reported as 5.9%.

In the case of `OCC(O)CS` (stereo not shown) [Thioglycerol], the “Class. (degree of allergenicity)” value ([2]; reading 24) is given as “III (29-64)”, the “Number of animals with Note 0” value ([2]; reading 24) is given as 7 and the “Number of animals with Note 1” value ([2]; reading 24) is given as 9. For the same compound, the “Number of animals with Note 2” value ([2]; reading 24) was 3, the “Number of animals with Note 3” value ([2]; reading 24) was 0 and the “Percentage” value ([2]; reading 24) was 63%. The “Class. (degree of allergenicity)” value ([2]; reading 48) was “III (29-64)”, the “Number of animals with Note 0” value ([2]; reading 48) was 11 and the “Number of animals with Note 1” value ([2]; reading 48) was 8. For the same compound, the “Number of animals with Note 2” value ([2]; reading 48) was 0, the “Number of animals with Note 3” value ([2]; reading 48) was 0 and the “Percentage” value ([2]; reading 48) was 45%.

In the case of `N[C@@H](CS(=O)(=O)O)C(=O)[O-].N[C@@H](CS(=O)(=O)O)C(=O)[O-].O.O.[Zn+2]` [CB 619, dihydrate of the zinc salt of L-cysteic acid], the Skin irritation classification [4] is reported as “non-irritant”, the “Skin primary irritation index (SPI)” value [4] is reported as 0.1666 and the “LD 50” value ([5]; intraperitoneally) is reported as 100 ± 13 mg/kg. For the same compound, the “Signs at the toxic dosis” value ([5]; mouse, toxic dosis) was “animals become isolated in their cage; also recorded: Their hair stands up and they move with difficulty; also recorded: No diarrhea was observed”, the “LD 50” value ([5]; orally) was 1650 ± 60 mg/kg and the “Allergenicity (sensibilization)” value [6] was “no allergenic properties”. The Cell multiplication ([7]; 1 and 5 microgram/ml) was “increases the 5 cell multiplication in accordance with the concentration”, the “Significance of increase in cell multiplication (days)” value ([7]; 1 microgram/ml) was “significant on the sixth day” and the “Significance of increase in cell multiplication (days)” value ([7]; 5 microgram/ml) was “on the fourth, sixth and eighth days”. The “Eye irritation (E.I.)” value [8] was “under 2”, the Eye irritation classification [8] was “very weakly irritant” and the Maximum eye irritation [8] was 5.83. The “Inhibition of the lipidic synthesis” value ([3]; 10^-3 M) was 41.8%, the “Antiseborrheic activity compared with carboxymethylcysteine” value ([3]; 10^-3 M, CB 619 versus CMC) was “the more active” and the “Inhibition of the lipidic synthesis” value ([3]; 10^-4 M) was 33.7%. The “Intrinsic Inhibition Power, inhibition diameter” value (from here on “Intrinsic Inhibition Power”) ([9]; 1 mg) was 6 mm, the “Intrinsic Inhibition Power” value ([9]; 2 mg) was 7 mm and the “Intrinsic Inhibition Power” value ([9]; 3 mg) was 9 mm. For the same compound, the “Intrinsic Inhibition Power” value ([9]; 4 mg) was 11 mm, the “Intrinsic Inhibition Power” value ([9]; 5 mg) was 13 mm and the “Intrinsic Inhibition Power” value ([10]; 1 mg) was 6 mm. The “Intrinsic Inhibition Power” value ([10]; 2 mg) was 7 mm, the “Intrinsic Inhibition Power” value ([10]; 3 mg) was 9 mm and the “Intrinsic Inhibition Power” value ([10]; 4 mg) was 11 mm. For the same compound, the “Intrinsic Inhibition Power” value ([10]; 5 mg) was 13 mm, the “pH of a 6% solution” value [11] was “about 6.30” and the “Intrinsic Inhibition Power” value ([12]; concentration of 2%) was 10 mm. The “Intrinsic Inhibition Power” value ([12]; saturated solution) was 11 mm, the “Intrinsic Inhibition Power” value ([13]; concentration of 2%) was 10 mm and the “Intrinsic Inhibition Power” value ([13]; saturated solution) was 11 mm. The Cicatrization ([14]; 3% in a 2% carbopol gel) was “enhances cicatrization”, the Cicatrization ([14]; 10% in a 2% carbopol gel) was “no more active” and the Solubility in water was ~6 weight-percent by volume.

For `CCOC(=O)c1ccc(N)cc1` [Benzocaine], the “Class. (degree of allergenicity)” value ([2]; reading 24) is listed as “II (9-28)”, the “Number of animals with Note 0” value ([2]; reading 24) is listed as 17 and the “Number of animals with Note 1” value ([2]; reading 24) is listed as 3. For the same compound, the “Number of animals with Note 2” value ([2]; reading 24) was 0, the “Number of animals with Note 3” value ([2]; reading 24) was 0 and the “Percentage” value ([2]; reading 24) was 15%. The “Class. (degree of allergenicity)” value ([2]; reading 48) was “II (9-28)”, the “Number of animals with Note 0” value ([2]; reading 48) was 17 and the “Number of animals with Note 1” value ([2]; reading 48) was 3. For the same compound, the “Number of animals with Note 2” value ([2]; reading 48) was 0, the “Number of animals with Note 3” value ([2]; reading 48) was 0 and the “Percentage” value ([2]; reading 48) was 15%.
